Where two headings read alike, the source gives them in different places.
Key:
[1] = test system: Col1A1 gene expression in TGF-β1-induced LX-2 cells; experiment: Inhibition of human hepatic stellate cells LX-2 activation in vitro (Col1A1 gene expression, real-time PCR); type: cell-based; details: TGFβ1 10 ng/mL, 24 h drug treatment, compound concentration of the tabulated value not stated (30, 10, 3 μM prepared)
Description: The compounds of the present disclosure prepared in the above examples and the control compound were respectively formulated into 60 mM with DMSO for use.
DMSO stock solution of the compounds of the examples of the present disclosure and the control compound were sequentially diluted with culture medium to 30 μM, 10 μM, and 3 μM. TGF-β1 was dissolved to […] with 10 mM citric acid buffer in the kit (PeproTech) according to the instructions, ready for use.
LX-2 cells were inoculated into a 6-well culture plate at a density of 2×10^5 cells/mL after cell passage. Each well contained 2 mL DMEM with 10% FBS. The cells were cultured at 37° C. in a 5% CO2 incubator, which was recorded as Day 1. After 24 h (Day 2), the cell confluence reached 70-80%, the old culture medium was discarded, and the serum-free DMEM was used to treat the cells as low serum starvation. The old culture medium was discarded at Day 3, and the culture medium or the culture medium containing different concentrations of the drug was added for continuing culture. There were control group (serum-free DMEM culture medium), TGFβ1 group, TGFβ1+ compound group. The TGFβ1 working concentration was 10 ng/mL. 24 h after the drug treatment (Day 4), the cell medium was discarded and the cells were washed once with precooled 1×PBS and then subjected to total RNA extraction.
2.3.1 Sample pretreatment: 1 mL of TransZOL Up reagent was added to each well of the 6-well plate, and the well plate was placed horizontally for a while to let the lysis buffer evenly spread on the cell surface and lyse the cells. The cells were blown with a pipette to make the cells completely detached. The lysate was transferred to a 2 mL RNase free centrifuge tube and repeatedly blown and sucked until no significant pieces in the lysate.
The extracted RNA was diluted to a concentration of 0.1 μg-0.5 μg (Total RNA ≤1 μg) based on the same mass. The total RNA in the reverse transcription system of each sample in the experiment was about 500 ng.
Two replicates were set for each sample, and the relative expression of the target gene was calculated by the program in the PCR machine.
The threshold of the Real Time PCR result was automatically set by the Real Time PCR detector system. The relative expression of the Col1A1 gene was calculated as follows. ΔCt (Col1A1 in drug treatment group)=Avg. Ct (Col1A1 in drug treatment group)−Avg. Ct (GAPDH in drug treatment group) ΔCt (Col1A1 in TGF group)=Avg. Ct (Col1A1 in TGF group)−Avg. Ct (GAPDH in TGF group) ΔCt (Col1A1 in Control group)=Avg. Ct (Col1A1 in Control group)−Avg. Ct (GAPDH in Control group) ΔΔCt=Average value of ΔCt (Col1A1 in TGF group/drug treatment group)−ΔCt (Col1A1 in Control group)
Formula for calculating the relative expression of Col1A1 gene: RQ=^2−ΔΔCt
Relative quantification results were obtained by automatically analysis of ABI 7500 real-time quantitative PCR machine.

ACC1 = ACC1 (Homo sapiens (Human), UniProt Q13085); experiment: ACC1 enzyme activity assay (ADP-Glo); type: biochemical; details: ACC1 enzyme 2 nM working solution, room temperature
Description: (§1) Compound preparation: the compounds of the present disclosure prepared in the above examples and the control compound were respectively formulated into 10 mM with DMSO for use.
(§2) Preparation of 1× reaction buffer (pH=7.4): HEPES stock solutions (1 M), MgCl2 (1 M), BRIJ-35 (10%), potassium citrate buffer (1 M), BSA (10 mg/mL) and DTT (500 mM) were formulated to enzyme reaction buffer containing HEPES (50 mM), MgCl2 (2 mM), BRIJ-35 (0.01%), potassium citrate buffer (2 mM), BSA (50 Gg/mL) and DTT (2 mM).
4.5 μL of 2.2×ACC1 enzyme (2 nM) working solution was added to a 384-well plate; and then 0.5 μL of different concentrations of compound were added. The mixture was incubated at room temperature for 15 min.
(§3) Negative control group: menstruum containing 5% DMSO; positive control group: menstruum containing 100 nM ND-630. The average values of each concentration and the positive and negative controls were calculated, and the standard deviation was calculated. […] The inhibition rate data was fitted by nonlinear regression equation to calculate IC50 of each compound. The nonlinear regression equation was Y=lowest value+(highest value−lowest value)/(1+10^((Log IC50−X)×HillSlope)), among which X is logarithm of the compound concentration and Y is inhibition percent (%).

ACC2 = ACC2 (Homo sapiens (Human), UniProt O00763); experiment: ACC2 enzyme activity assay (ADP-Glo); type: biochemical; details: ACC2 enzyme 1.1 nM working solution, room temperature
Chain of ACC2 (O00763 whole entry): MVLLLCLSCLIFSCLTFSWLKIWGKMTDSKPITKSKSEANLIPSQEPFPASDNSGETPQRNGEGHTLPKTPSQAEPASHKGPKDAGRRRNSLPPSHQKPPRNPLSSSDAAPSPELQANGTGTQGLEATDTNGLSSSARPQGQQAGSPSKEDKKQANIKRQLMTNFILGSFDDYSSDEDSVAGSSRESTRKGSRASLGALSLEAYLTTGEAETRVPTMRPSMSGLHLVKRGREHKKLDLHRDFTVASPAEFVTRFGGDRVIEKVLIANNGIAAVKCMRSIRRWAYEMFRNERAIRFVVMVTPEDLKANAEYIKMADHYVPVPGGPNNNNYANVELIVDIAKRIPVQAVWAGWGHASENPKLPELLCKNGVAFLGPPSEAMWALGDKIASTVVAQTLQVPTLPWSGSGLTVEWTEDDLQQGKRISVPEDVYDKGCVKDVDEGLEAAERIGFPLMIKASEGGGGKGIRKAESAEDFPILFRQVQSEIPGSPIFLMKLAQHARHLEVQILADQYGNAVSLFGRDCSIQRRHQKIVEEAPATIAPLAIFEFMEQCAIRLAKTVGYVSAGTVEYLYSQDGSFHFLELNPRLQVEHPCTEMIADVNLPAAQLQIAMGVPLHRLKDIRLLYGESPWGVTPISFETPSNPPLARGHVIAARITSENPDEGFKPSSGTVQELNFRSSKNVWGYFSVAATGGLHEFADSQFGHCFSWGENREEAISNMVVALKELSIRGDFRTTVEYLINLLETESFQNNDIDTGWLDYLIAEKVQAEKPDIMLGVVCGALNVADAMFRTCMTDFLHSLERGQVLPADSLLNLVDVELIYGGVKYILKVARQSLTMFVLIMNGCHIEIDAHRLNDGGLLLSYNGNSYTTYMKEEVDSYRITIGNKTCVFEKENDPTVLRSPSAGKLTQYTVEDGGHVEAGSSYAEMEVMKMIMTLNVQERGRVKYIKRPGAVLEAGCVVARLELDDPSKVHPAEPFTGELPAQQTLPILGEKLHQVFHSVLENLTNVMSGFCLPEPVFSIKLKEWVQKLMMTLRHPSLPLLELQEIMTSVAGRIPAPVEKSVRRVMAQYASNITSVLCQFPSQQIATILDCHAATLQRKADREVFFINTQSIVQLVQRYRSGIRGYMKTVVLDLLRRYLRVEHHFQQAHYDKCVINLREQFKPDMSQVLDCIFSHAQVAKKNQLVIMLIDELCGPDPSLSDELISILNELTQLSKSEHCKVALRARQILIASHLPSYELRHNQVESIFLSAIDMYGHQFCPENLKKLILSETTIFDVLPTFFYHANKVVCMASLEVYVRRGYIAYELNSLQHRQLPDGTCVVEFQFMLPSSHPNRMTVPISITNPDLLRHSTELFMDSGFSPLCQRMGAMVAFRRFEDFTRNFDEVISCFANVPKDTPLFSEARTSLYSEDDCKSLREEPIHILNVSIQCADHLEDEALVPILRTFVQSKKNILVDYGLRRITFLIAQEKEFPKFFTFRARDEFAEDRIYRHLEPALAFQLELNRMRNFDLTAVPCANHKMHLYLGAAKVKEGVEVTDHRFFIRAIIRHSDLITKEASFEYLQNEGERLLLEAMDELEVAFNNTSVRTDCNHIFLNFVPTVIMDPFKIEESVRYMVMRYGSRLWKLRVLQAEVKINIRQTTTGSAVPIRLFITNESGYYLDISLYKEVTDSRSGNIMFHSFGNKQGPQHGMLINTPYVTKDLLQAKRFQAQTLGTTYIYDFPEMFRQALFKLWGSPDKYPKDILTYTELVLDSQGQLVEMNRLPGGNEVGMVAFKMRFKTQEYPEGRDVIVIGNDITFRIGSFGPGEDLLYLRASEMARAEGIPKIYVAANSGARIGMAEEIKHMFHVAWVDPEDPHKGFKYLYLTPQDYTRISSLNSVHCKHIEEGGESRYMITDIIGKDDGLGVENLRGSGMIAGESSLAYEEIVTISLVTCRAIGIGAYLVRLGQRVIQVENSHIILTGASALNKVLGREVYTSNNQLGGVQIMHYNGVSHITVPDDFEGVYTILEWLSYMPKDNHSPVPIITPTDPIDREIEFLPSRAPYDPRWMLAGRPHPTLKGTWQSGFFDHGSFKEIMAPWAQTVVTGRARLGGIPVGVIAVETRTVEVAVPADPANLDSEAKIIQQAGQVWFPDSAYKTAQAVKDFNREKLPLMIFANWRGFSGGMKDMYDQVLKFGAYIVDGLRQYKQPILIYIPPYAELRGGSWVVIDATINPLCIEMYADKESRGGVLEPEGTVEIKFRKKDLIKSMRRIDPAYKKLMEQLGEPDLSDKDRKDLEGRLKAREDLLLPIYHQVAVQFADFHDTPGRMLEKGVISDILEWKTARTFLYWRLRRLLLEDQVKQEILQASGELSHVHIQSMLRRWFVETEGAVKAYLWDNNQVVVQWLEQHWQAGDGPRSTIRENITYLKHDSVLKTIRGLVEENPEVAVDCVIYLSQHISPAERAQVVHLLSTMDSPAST
Description: as §1, §2
The mixture was incubated at room temperature for 15 min.
as §3

[2] = Evaluation of compound distribution in rat liver; type: in vivo; details: male SD rats, single oral 3 mg/kg, 0.25 h after administration; for Kp at 0.25 h: liver/plasma, read-out: Liver/plasma distribution ratio
Description: An acclimation period of 2-3 days was given before the experiments. The rats were fasted for 8-12 h before administration, supplied with water 2 h after administration and foods 4 h after administration.
6 mg of the test compound (based on free base) was weighed and added to 20 mL of ethanol-PEG400-saline (10:30:60). The mixture was vortexed for 2 min, and sonicated for 3 min, and then used to prepare a solution of test sample solution with a concentration of 0.3 mg/mL for oral administration. 100 μL of the test sample solution was volumed to 10 ng/mL with methanol, and a control sample of the same concentration was prepared. The concentrations of the test sample and control sample were detected by HPLC, and the accuracy was calculated.
SD rats were given a single oral administration of 3 mg/kg of test compound at a dose of 10 mL/kg. The rats were bled in femoral artery and ruptured in neck 0.25 h after administration. The liver and blood samples (anticoagulation with heparin sodium) were collected immediately, and placed on ice.
The homogenate was centrifuged (centrifugation conditions: 8000 rpm/min, 5 min, 4° C.). The supernatant was transferred and subjected to cryopreservation. The supernatant was thawed and centrifuged before injection, and the supernatant was collected and subjected to LC-MS/MS for analyzing the content of the compound in the supernatant sample.
The collected whole blood sample was placed on ice and centrifuged within 30 min (centrifugation conditions: 8000 rpm/min, 5 min, 4° C.). 100 μL of the upper layer of plasma was transferred, and precipitated with 300 μL of methanol. The mixture was shaken and centrifuged, and diluted with mobile phase. The supernatant was collected and subjected to LC-MS/MS for analyzing the content of the compound in the supernatant sample.

[3] = liver, read-out: Concentration in Liver
[4] = plasma, read-out: Concentration in Plasma

| Compound | Inhibition rate (%) of relative expression of the Col1A1 gene [1] [%] | IC50 (ACC1) [nM] | IC50 (ACC2) [nM] | concentration at 0.25 h [2, 3] [ng/g] | Kp at 0.25 h [2] | concentration at 0.25 h [2, 4] [ng/mL] |
| --- | --- | --- | --- | --- | --- | --- |
| COc1ccccc1[C@H](Cn1c(=O)n(-c2ccc(C(=O)O)cc2)c(=O)c2c(C)c(-c3ncco3)sc21)OC1CCOCC1 [Example 24a, (R)-4-(1-(2-(2-methoxyphenyl)-2-((tetrahydro-2H-pyran-4-yl)oxy)ethyl)-5-methyl-6-(oxazol-2-yl)-2,4-dioxo-1,4-dihydrothieno[2,3-d]pyrimidin-3(2H)-yl)benzoic Acid] | 24.50 | – | – | – | – | – |
| COc1ccccc1C(Cn1c(=O)n(-c2ccc(C(=O)O)cc2)c(=O)c2c(C)c(-c3ncco3)sc21)OC1CCOCC1 (stereo not shown) [Example 24, 4-(1-(2-(2-methoxyphenyl)-2-((tetrahydro-2H-pyran-4-yl)oxy)ethyl)-5-methyl-6-(oxazol-2-yl)-2,4-dioxo-1,4-dihydrothieno[2,3-d]pyrimidin-3(2H)-yl)benzoic Acid] | – | 3.06 | 5.12 | 3170 | 65.3 | 48.5 |
| COc1ccccc1[C@H](Cn1c(=O)n([C@H]2C[C@@](C)(C(=O)O)C2)c(=O)c2c(C)c(-c3ncco3)sc21)OC1CCOCC1 [Example 4, (1S,3s)-3-(1-((R)-2-(2-methoxyphenyl)-2-((tetrahydro-2H-pyran-4-yl)oxy)ethyl)-5-methyl-6-(oxazol-2-yl)-2,4-dioxo-1,4-dihydrothieno[2,3-d]pyrimidine-3(2H)-yl)-1-methylcyclobutanecarboxylic Acid] | 78.54 | 0.68 | 3.16 | 4830 | 67.1 | 72.8 |
| COc1ccccc1C(Cn1c(=O)n(C2CC(C(=O)O)C2)c(=O)c2c(C)c(-c3ncco3)sc21)OC1CCOCC1 (stereo not shown) [Example 1, 3-(1-(2-(2-methoxyphenyl)-2-((tetrahydro-2H-pyran-4-yl)oxy)ethyl)-5-methyl-6-(oxazol-2-yl)-2,4-dioxo-1,4-dihydrothieno[2,3-d]pyrimidin-3(2H)-yl)cyclobutane-1-carboxylic Acid] | – | 0.69 | 5.13 | 4180 | 144 | 29.1 |
| COc1ccccc1[C@H](Cn1c(=O)n(-c2cccc(C3(C(=O)O)CC3)c2)c(=O)c2c(C)c(-c3ncco3)sc21)OC1CCOCC1 [Example 56] | 105.01 | – | – | – | – | – |
| CCS(=O)(=O)N1CC(n2c(=O)c3c(C)c(-c4ncco4)sc3n(CC(OC3CCOCC3)c3ccccc3OC)c2=O)C1 (stereo not shown) [Example 10, 3-(1-(ethylsulfonyl)azetidin-3-yl)-1-(2-(2-methoxyphenyl)-2-((tetrahydro-2H-pyran-4-yl)oxy)ethyl)-5-methyl-6-(oxazol-2-yl)thieno[2,3-d]pyrimidine-2,4(1H, 3H)-dione] | – | 1.35 | 6.85 | – | – | – |
| COc1ccccc1C(Cn1c(=O)n(-c2cccc(C(=O)O)c2)c(=O)c2c(C)c(-c3ncco3)sc21)OC1CCOCC1 (stereo not shown) [Example 25, 3-(1-(2-(2-methoxyphenyl)-2-((tetrahydro-2H-pyran-4-yl)oxy)ethyl)-5-methyl-6-(oxazol-2-yl)-2,4-dioxo-1,4-dihydrothieno[2,3-d]pyrimidin-3(2H)-yl)benzoic Acid] | 62.94 | 1.57 | 7.57 | 3200 | 151 | 21.2 |
| COc1ccccc1C(Cn1c(=O)n(C2CN(C(C)=O)C2)c(=O)c2c(C)c(-c3ncco3)sc21)OC1CCOCC1 (stereo not shown) [Example 7] | – | 2.23 | 12.4 | 1460 | 75.5 | 19.3 |

Source: patent US11186587B2, “Compound as ACC inhibitor and use thereof” (NANJING SANHOME PHARMACEUTICAL CO., LTD., priority 2017, dated 2021)
